These are literature values, as cited in patent US6562827B1, “Heterocyclically substituted amides used as calpain inhibitors” (Abbott Laboratories, priority 1998, dated 2003).

For data set [1] the following is noted: known calpain inhibitors.
Data set [2] relates to calpain. To be noted: known calpain inhibitors.
Data set [3] deals with calpain. To be noted: result in words, from the literature.
For data set [4], the system named is tyrosine kinase pp60src cleaved by calpain. Conditions: activated platelets; Oda et al. J. Biol. Chem. 1993.

As for `CC(C)C[C@H](NC(=O)[C@H]1O[C@@H]1C(=O)O)C(=O)NCCCCN=C(N)N` [E 64], the “crossing of cell membranes” value in data set [1] is given as “only cross the cell membranes with difficulty”. Also, the action in cells entry in data set [2] is “only a poor action in cells”. The calpain inhibition result in data set [3] is “good calpain inhibitors”.
Turning to `CCCC[C@@H](C=O)NC(=O)[C@H](CC(C)C)NC(=O)OCc1ccccc1` [calpeptin], the “cleavage of pp60src” value in data set [4] is “can be prevented”.
As to `CC(=O)N[C@@H](CC(C)C)C(=O)N[C@@H](CC(C)C)C(=O)N[C@H](C=O)CCCNC(=N)N` [leupeptin], the “crossing of cell membranes” value in data set [1] is “only cross the cell membranes with difficulty”. Also, the action in cells entry in data set [2] was “only a poor action in cells”. In addition, in data set [3], the calpain inhibition entry is listed as “good calpain inhibitors”.
For the molecule Ph—CONH—CH(CH2Ph)—CO—COCOOCH3, the calpain inhibition entry in data set [3] is given as “only a weak calpain inhibitor”.
